Data published in patent US6808877B2, “Ligands for FPR class receptors that induce a host immune response to a pathogen or inhibit HIV infection” (priority 2000, dated 2004).
Where no end group is shown, it is not given here.

Experiments:
FPRL1(LXA4R) [1] = target: T1, FPRL1(LXA4R) (Homo sapiens, UniProt P25090); details: CHO cells transfected with FPRL1(LXA4R); cited from earlier work
T1 construct: host or cells: CHO cells
T1 sequence (P25090 1-351): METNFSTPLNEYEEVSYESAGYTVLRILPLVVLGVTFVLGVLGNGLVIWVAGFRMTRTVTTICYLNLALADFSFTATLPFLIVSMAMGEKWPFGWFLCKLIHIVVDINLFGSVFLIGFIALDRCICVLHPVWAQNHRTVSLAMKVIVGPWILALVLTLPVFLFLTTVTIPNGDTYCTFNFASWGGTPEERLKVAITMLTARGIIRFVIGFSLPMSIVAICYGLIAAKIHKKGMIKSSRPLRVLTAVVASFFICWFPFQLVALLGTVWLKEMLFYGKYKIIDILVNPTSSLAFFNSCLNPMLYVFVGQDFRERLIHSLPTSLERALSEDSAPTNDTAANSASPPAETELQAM

FPRL1(LXA4R) [2] = target: T1, FPRL1(LXA4R); details: CHO cells transfected with FPRL1(LXA4R); cited from earlier work; remark: listed apart in the source
FPRL1 = target: T2, FPRL1 (Homo sapiens, UniProt P25090); assay: 3H-fMLP binding to FPRL1/293 cells
T2 construct: expressed in transfected cells; host or cells: HEK 293
T2 sequence (P25090 1-351): T1 sequence (P25090 1-351)
Procedure: The cells were then washed with ice-cold PBS (phosphate buffered saline) and filtered onto Whatman discs. The radioactivity associated with the cells was measured with a β counter.
The samples were incubated under constant rotation for 30 minutes at 37° C. After incubation, the samples were filtered onto Whatman GF/C discs (Whatman International Ltd., Kent, UK) on a 12-well manifold followed by extensive washing with ice-cold phosphate-buffered saline (PBS). The discs were air-dried at 65° C., submerged in liquid scintilation cocktail, and counted for β emision.

human neutrophils = details: N-formylated or N-acetylated; cited from earlier work

CCCCC[C@H](O)/C=C/C=C\C=C\C=C\[C@@H](O)[C@@H](O)CCCC(=O)O [LXA4, lipoxin A4]
binding affinity (FPRL1(LXA4R) [1]): high affinity | GTPase activity and release of esterified arachidonate (FPRL1(LXA4R) [2]): increased GTPase activity and the release of esterified arachidonate

CSCC[C@H](NC=O)C(=O)N[C@@H](CC(C)C)C(=O)N[C@@H](Cc1ccccc1)C(=O)O [^3H-fMLP]
binding to cells (FPRL1): did not significantly bind

Met-Ile-Leu-Phe-Phe-OH (MILFF-OH) [ID; No. 2]
potency in the induction of Ca2+ flux relative to fMLP (human neutrophils): more potent than parental fMLP
